Converted amounts (≈) assume the structure as drawn.
Experiments:
[1] = system: Malassezia sympodialis ATCC 42132; experiment: Mid-log assay (compound added at half-maximum OD580); type: cell-based, Malassezia sympodialis (former M. furfur); conditions: Example 7; for inhibition at 12.5 µg/mL: Malassezia sympodialis, ATCC42132, read-out: Mid-log Assay %-inhibition compared to benchmark
Description: Cells are cultivated to half-maximal OD580 before test compounds are added (arrow). Value of OD580 at time of sample application is set 100%. […] Blue diamonds, untreated control cells; pink rectangles, cells treated with test compounds.
(§1) General Assay Conditions • 1. Strain: Malassezia sympodialis ATCC 42132 • 2. Growth conditions: • Sabouraud-medium supplemented with dextrose (20 g/l), Tween 80 (1%) and glycerol-monostearat (emulsifier; 0.05%). Static incubation in flat-bottom 96-well microtiterplates (total volume 340 μl, working volume 200 μl; surface area 148 mm2). Incubation at 33° C. in humid atmosphere (wet-box) to avoid dessication. Incubation periods vary according to the assay format. Suspensions used for inoculation were adjusted to an optical density (OD580) of 0.1 • 3. […] Controls • Sterile media was used as negative control; cells cultivated in absence of any test compound but in presence of equal amounts of DMSO compared to samples (see below) were regarded as positive control (unrestricted growth) • 5. All compounds (test-samples and references) are dissolved in DMSO. […] Unless otherwise stated, test compound concentration was 12.5 μg/ml
For the so called “mid-log assay”, cells are grown to half-maximum optical density before test compounds are added. […] Numbers for OD580 of untreated control samples and samples treated with test compounds are compared to t0-value, which is defined as the 100% level. The value for OD580 of the untreated control sample in stationary phase (end of experiment) is defined as the “control-level” (for unrestricted growth). Values for control-levels are solely dependent on t0-values and therefore vary with each experiment; thus, they cannot be standardised.
Exponentially growing cells (mid-log) are in a defined active state with respect to proliferation and metabolic activity. […] Moreover, the mode of inhibition caused by the test compound can be determined (see above).

[2] = system: Malassezia sympodialis ATCC 42132; experiment: Classic assay for susceptibility testing of planktonically growing cells (OD580); type: cell-based, Malassezia sympodialis (former M. furfur); conditions: for inhibition at 12.5 µg/mL: read-out: Classic Assay, planktonic growth, inhibition
Description: Routine cultivation of M. sympodialis: M. sympodialis (former M. furfur) CBS 1878 was obtained from the Centraalbureau voor Schimmelcultures Fungal Biodiversity Centre. It was routinely grown on Dixon-agar plates in a humid atmosphere (“wet box”) at 33° C., or in Sabouraud-Maltose (SM) broth complemented with Tween80 and Glycerin-monostearate for liquid cultures in shake-flasks (300 ml operated with 50 ml medium) with agitation (150 rpm).
as §1
Routine susceptibility testing of M. sympodialis in high throughput format was done by simultaneous addition of test compounds and inoculum. Seven days after inoculation and when planktonic growth of the untreated control ceased, the effect of the test compounds was evaluated by comparison of the turbidity (optical density, OD580) of treated and untreated samples (control; 100%).
The classic assay is the platform to determine dose-response relationships, where serial dilutions of compounds are evaluated. For description of these relationships, values for the minimal effective concentration and the concentration effective in reducing cell proliferation by 50% (IC50) are generated.

[3] = 12.5 μg/ml unless otherwise stated
[4] = Malassezia sympodialis, ATCC42132, Example 7, 12.5 μg/ml unless otherwise stated

`CC(C)(C)C(=O)C(Oc1ccc(Cl)cc1)n1ccnc1` (stereo not drawn) [Crinipan, climbazole] was tested, and the inhibition at 12.5 µg/mL [1, 3] was 66%, the inhibition at 12.5 µg/mL [2, 4] was 93% and the IC50 ([2]; Malassezia sympodialis, ATCC42132, serial dilutions, classic assay, read-out: IC50 (concentration reducing cell proliferation by 50%), planktonic growth) was 0.2 µg/mL (≈ 0.683 µM).

With `C=CC(OC(C)=O)c1ccc(OC(C)=O)cc1` (stereo not drawn) [1-acetoxychavicol, 1-acetoxychavicol acetate] the “Mid-log Assay Level-%” value ([1]; OD580 at addition = 100%, Control-level 399) was 379%, the inhibition at 12.5 µg/mL [1, 3] was 11% and the inhibition at 12.5 µg/mL [2, 4] was 61%.

In the case of Zinc Pyrithione, the “Mid-log Assay %-inhibition compared to benchmark” value [1, 3] is reported as 16%, the “Classic Assay, planktonic growth, inhibition” value ([2]; Example 7, 12.5 μg/ml unless otherwise stated) is reported as 73% inhibition and the “IC50 (concentration reducing cell proliferation by 50%), planktonic growth” value ([2]; serial dilutions, classic assay) is reported as 12.4 µg/mL.

Reference: patent publication US20150231045A1, “ANTI-DANDRUFF COMPOSITION COMPRISING 1-ACETOXYCHAVICOL ACETATE” (AnalytiCon Discovery GmbH, priority 2012, published 2015)
